Test results as given in the NIST ThermoML archive (doi:10.1021/acs.jced.6b00178).

Assay: xn = mol fraction of the nth substance listed
Settings: 100 kPa, Liquid; for viscosity: Concentric cylinders viscometry; for mass density: Vibrating tube method

CCCCn1cc[n+](C)c1.N#C[S-] [1-butyl-3-methylimidazolium thiocyanate] + CCCC[n+]1ccn(C)c1.O=S(=O)([N-]S(=O)(=O)C(F)(F)F)C(F)(F)F
Settings	mass density, x2 = 0 [kg/m3]	mass density, x2 = 0.25 [kg/m3]	mass density, x2 = 0.5 [kg/m3]	mass density, x2 = 0.748 [kg/m3]	viscosity, x2 = 0 [mPa·s]	viscosity, x2 = 0.25 [mPa·s]	viscosity, x2 = 0.5 [mPa·s]	viscosity, x2 = 0.748 [mPa·s]
283.15 K	1079.2	1206.2	1305.3	1385.3	139.54	133.49	124.13	115.12
288.15 K	1076.2	1202.6	1301.2	1380.7	104.51	101.08	94.68	88.29
293.15 K	1073.2	1199	1297.1	1376.2	82.91	80.92	76.17	71.22
298.15 K	1070.2	1195.4	1293.1	1371.7	62.63	61.69	58.5	55.06
303.15 K	1067.2	1191.8	1289	1367.3	49.94	49.55	47.23	44.62
308.15 K	1064.2	1188.3	1285	1362.8	40.48	40.42	38.7	36.7
313.15 K	1061.3	1184.7	1281	1358.4	34.08	34.22	32.85	31.22
318.15 K	1058.4	1181.2	1277.1	1354	27.8	28.05	27.03	25.81
323.15 K	1055.5	1177.7	1273.1	1349.7	23.49	23.79	22.97	22.01
328.15 K	1052.6	1174.3	1269.2	1345.3	20.06	20.39	19.74	18.96
333.15 K	1049.8	1170.8	1265.3	1341	17.58	17.91	17.36	16.7
338.15 K	1047	1167.4	1261.5	1336.7	15.08	15.38	14.94	14.44
343.15 K	1044.1	1164	1257.6	1332.4	13.24	13.54	13.16	12.74
348.15 K	1041.4	1160.6	1253.8	1328.1	11.71	12	11.67	11.33
353.15 K	1038.6	1157.3	1250	1323.9	10.67	10.92	10.65	10.36
358.15 K	1035.8	1154	1246.2	1319.7	9.355	9.577	9.351	9.114
363.15 K	1033.1	1150.7	1242.4	1315.5	8.436	8.621	8.44	8.242
